Patent publication US9873724B2, “Pro-angiogenic peptides and peptide conjugates” (Yissum Research Development Company of the Hebrew …, priority 2013, dated 2018)
Values joined by “and” are separate entries in the source; they are usually repeats but may differ in a detail not shown here. Equal entries are not always repeated. Square brackets hold non-standard residues; d marks the D form. Ends that are not written are not given here. * marks the point of attachment. fluorescein = fluorescein moiety coupled to a lysine residue (K-Flu); Tyr(3,5-I2) = N[C@@H](Cc1cc(I)c(O)c(I)c1)C(=O)O; Phe(4-Br) = N[C@@H](Cc1ccc(Br)cc1)C(=O)O; hArg = N=C(N)NCCCC[C@H](N)C(=O)O; Myristoyl = CCCCCCCCCCCCCC(=O)*; Lauroyl = CCCCCCCCCCCC(=O)*; Decanoyl = CCCCCCCCCC(=O)*; Nle = CCCC[C@H](N)C(=O)O; Octanoyl = CCCCCCCC(=O)*; Hexanoyl = CCCCCC(=O)*

Key:
mouse aortic rings = assay: Aortic ring assay ex-vivo (capillary sprouting from mouse aortic rings in collagen; repeated with VEGF); type: cell-based; design: Capillary length 10 μM (10 μM) / Capillary length 20 μM / Capillary length 10 μM: unit not given here; details: for Capillary length 10 μM / Capillary length 10 μM (10 μM): peptide 10 μM; for Capillary length 10 μM / Capillary length 10 μM (10 μM) / Capillary length 20 μM: rings fixed after two weeks; for Capillary length 20 μM: peptide 20 μM; for effect of peptide together with VEGF (in words): 10 μM peptide with VEGF; for Average capillary length / Fold vs vehicle: 10 μM peptide, alone or together with VEGF; for capillary / vessel formation (in words): aortic ring assay, FIGS. 1A-1C and 2A-2C; for Fold vs vehicle: capillary length
Protocol: Thoracic aortas were dissected from 7- to 8-week-old male SABRA mice. The aortas were immediately transferred to Petri dishes containing BIO-MPM-1. The adventitia and small vessels around the aorta were carefully removed under a dissecting microscope, and transverse cuts of 0.75 mm were made. The resulting aortic rings were extensively rinsed and incubated overnight in BIO-MPM-1 containing penicillin-streptomycin. Subsequently, the rings were embedded in 50 μl collagen mix (7 parts collagen, 1 part 10× Eagle minimal essential medium, MEM, and 2 parts 0.15 M sodium bicarbonate) in 96-well plates (Nunc, Rochester, N.Y.). Solidification of the collagen solution was achieved by raising the pH to neutral and the temperature to 37° C. 150 μl BIO-MPM-1 containing penicillin-streptomycin and the tested factors or peptides) was added to the embedded rings, and the plates were incubated at 37° C. in a humidified 10% CO2 atmosphere. Medium containing factors and/or peptides was refreshed at days 4 and 8. After two weeks, the rings were fixed with 4% formaldehyde for 24 hours, followed by staining with crystal violet (0.02%) dissolved in ethanol and extensive washing to remove excessive stain. The effect of factors and peptides was examined in 4 wells (4 rings of mouse aortic rings) per assay. Micrographs of representative rings were taken using a digital camera (Nikon, Tokyo, Japan). Morphometric analysis of sprouting was performed manually using Image-Pro 4.5 software (Media Cybernetics, Silver Spring, Md.) according to Nissanov et al. (Lab Invest. 1995; 73:734-739). Nonstained rings were subjected to paraffin sections and hematoxylin and eosin (H&E) staining.
FIGS. 1A-1C represents aortic ring capillary length and FIGS. 2A-2C aortic ring capillary width. In the table: K-Flu is a Lysine residue coupled with a fluorescein moiety, 4BrPhe is 4-bromo-Phenylalanine, Dod is Dodecanoyl, Dec designates Decanoyl, Oct is Octanoyl, and Hex is Hexanoyl.
The aortic ring assay was repeated in the presence of 10 μM concentration of peptides AB-033 (SEQ ID NO: 13) and AB-034 (SEQ ID NO: 14) together with the pro-angiogenetic protein VEGF.

[1] = test system: Mice/Balb/c, hind limb ischemia model; assay: Mouse hind limb ischemia/angiogenesis model; type: in vivo; details: 20 mg/kg IP twice weekly
Text: The object of this study was to determine whether administration of the test items, peptides AB-017 (SEQ ID NO: 12) and 725-106 (positive control, SEQ ID NO: 2) can enhance angiogenesis, subsequently inducing clinical and motor function improvement in a hind limb ischemia model. The principle of the test is based on changes in perfusion rate, clinical signs and histological parameters (necrosis) following administration of the test compounds.
Each tested group included 4-7 mice per group. Intraperitoneal (i.p) injection is the preferred route of administration of the test items in this model and DMSO/PEG is used as vehicle to prepare the test item solution.
Tested peptides were dissolved in 100% DMSO. Thereafter Polyethylene glycol (PEG) 400 is added to the solution. Sterile water was used to dilute to a final concentration of 0.5% DMSO/10% PEG 400/H2O to result 2 mg/ml. The solution is prepared and divided into marked aliquots and stored at −70° C.
Species/Strain: Mice/Balb/c male˜8 weeks
Animals were housed under standard laboratory conditions, air conditioned and filtered (HEPA F6/6) with adequate fresh air supply (31 air changes/hour). Animals were kept in a climate controlled environment. Temperatures range is between 20-24° C. and RH is between 30-70% with 12 hours light and 12 hours dark cycle. Animals were housed in polyethylene cages (7/cage) measuring 35×30×15 cm, with stainless steel top grill facilitating pelleted food and drinking water in plastic bottle; bedding: steam sterilized clean paddy husk. Bedding material is changed along with the cage at least twice a week. Diet: Animals are fed ad libitum a commercial rodent diet (Teklad Certified Global 18% Protein Diet cat #: 106S8216). Animals have free access to drinking water obtained from the municipality supply. Surgical Procedure: Anesthesia: Isoflurane 1.5-3% in a mixture of O2/N2O, under spontaneous respiration. All four limbs of the animal were taped down in order to facilitate the animal for surgery. Both hind legs of the animals are shaved and disinfected. On the operated leg, the right leg in all animals, an incision was made from the inguinal area to the proximity of the knee. The femoral vein/artery/nerve were exposed. The artery is dissected free from the vein, nerve and surrounding fascia. Distal to its bifurcation with the profound femoral artery, using 6-0 silk suture the artery is ligated twice, and thereafter transected between these two points (see prox-A-group model appendix I). The surgical wound is closed with 6-0 silk and the mouse is returned to its cage. The left leg is untreated control in all animals. Exclusion criteria: Only mice, whose mean flux measurement post surgery is […] and ≦50% of the pre surgical measurement, are incorporated into the study. Mice whose mean flux measurement post surgery out of this range were excluded from the study.
[formula] Drug administration: All animals were dosed by IP administration at a dose volume of 10 ml/kg.
Tests and Evaluation: Body weight: Body weights were measured prior to surgery, prior to each dosing, and prior to necropsy. Blood flow measurement: Using a Laser Doppler apparatus (Perimed PeriScan PIM II System, Technical manual available at test facility) Blood flow was measured (operated leg & control leg) while the legs are in their natural resting position at the following time points: Before surgery (after shaving) & Post surgery (Day 0); Day 1; Day 8; Day 15; Day 22; and Day 29. Each time point for each mouse consists of three measurements. Blood flow was measured, additionally, in first 10 animals at Pre before shaving. […]

Row | Substance | Capillary length 10 μM (mouse aortic rings) | Capillary length 10 μM (10 μM) (mouse aortic rings) | Capillary length 20 μM (mouse aortic rings) | other results
1 | AB-022: Table 2: Oct-Gly (Octanoyl), Nle, Arg, Pro, Tyr (Octanoyl-G[Nle]RPY) | 2,170 | 380 | 1,700 | 
2 | Myr-Gly-Nle-hArg-Pro-Tyr-NH2 (Myristoyl-G[Nle][hArg]PY-NH2; SMILES CCCCCCCCCCCCCC(=O)NCC(=O)N[C@@H](CCCC)C(=O)N[C@@H](CCCCNC(=N)N)C(=O)N1CCC[C@H]1C(=O)N[C@@H](Cc1ccc(O)cc1)C(N)=O) [AB-034] | 9,700 | 9,570 | 10,780 | effect of peptide together with VEGF (in words) (mouse aortic rings): synergistic effect; Average capillary length (mouse aortic rings): 3062; capillary / vessel formation (in words) (mouse aortic rings): induce massive capillary formation; Fold vs vehicle (mouse aortic rings): 2.2
3 | Myr-Gly-Arg-Pro-Tyr-NH2 (Myristoyl-GRPY-NH2; SMILES CCCCCCCCCCCCCC(=O)NCC(=O)N[C@@H](CCCNC(=N)N)C(=O)N1CCC[C@H]1C(=O)N[C@@H](Cc1ccc(O)cc1)C(N)=O) [AB-016] |  | 8,700 | 14,500 | 
4 | AB-011: Table 2: Myr-Gly, Nle, Arg, Pro, Tyr, Asn, Ala, K-Flu (lysine coupled with fluorescein), NH2 (Myristoyl-G[Nle]RPYNAK(fluorescein)-NH2) |  | 2500 | 5000 | 
5 | AB-021: Table 2: Dec-Gly (Decanoyl), Nle, Arg, Pro, Tyr (Decanoyl-G[Nle]RPY) | 3,940 | 590 | 3,200 | 
6 | Myr-Gly-Nle-Arg-Pro-35dITyr-NH2 (Myristoyl-G[Nle]RP[Tyr(3,5-I2)]-NH2; SMILES CCCCCCCCCCCCCC(=O)NCC(=O)N[C@@H](CCCC)C(=O)N[C@@H](CCCNC(=N)N)C(=O)N1CCC[C@H]1C(=O)N[C@@H](Cc1cc(I)c(O)c(I)c1)C(N)=O) [AB-033] |  | 3,570 | 3,800 | effect of peptide together with VEGF (in words) (mouse aortic rings): synergistic effect; Average capillary length (mouse aortic rings): 4941; capillary / vessel formation (in words) (mouse aortic rings): induce massive capillary formation; Fold vs vehicle (mouse aortic rings): 3.6
7 | AB-020: Table 2: Dod-Gly (Dodecanoyl), Nle, Arg, Pro, Tyr (Lauroyl-G[Nle]RPY) | 5,600 | 1,900 | 2,700 | 
8 | AB-031: Table 2: Myr-Gly, Nle, Arg, Pro, 4BrPhe (Myristoyl-G[Nle]RP[Phe(4-Br)]) | 1,840 |  |  | 
9 | VEGF |  |  |  | Average capillary length (mouse aortic rings): 3221; Fold vs vehicle (mouse aortic rings): 2.4
10 | AB-018: Table 2: Myr-Gly, Nle, Arg, Pro, Tyr, Asn, NH2 (Myristoyl-G[Nle]RPYN-NH2; SMILES CCCCCCCCCCCCCC(=O)NCC(=O)N[C@@H](CCCC)C(=O)N[C@@H](CCCNC(=N)N)C(=O)N1CCC[C@H]1C(=O)N[C@@H](Cc1ccc(O)cc1)C(=O)N[C@@H](CC(N)=O)C(N)=O) |  | 12,600 | 10,200 | 
11 | AB-013: Table 2: Myr-Gly, Nle, Arg, Pro, Tyr, Asn, DAla, NH2 (Myristoyl-G[Nle]RPYN[dA]-NH2; SMILES CCCCCCCCCCCCCC(=O)NCC(=O)N[C@@H](CCCC)C(=O)N[C@@H](CCCNC(=N)N)C(=O)N1CCC[C@H]1C(=O)N[C@@H](Cc1ccc(O)cc1)C(=O)N[C@@H](CC(N)=O)C(=O)N[C@H](C)C(N)=O) |  | 8700 | 900 | 
12 | AB-015: Table 2: Acetyl-Gly-, Arg, Pro, Tyr, NH2 (Ac-GRPY-NH2) |  | 1,000 | 1,700 | 
13 | 725-106: Previously disclosed EDG3 peptide, positive control; Table 2: Myr-Gly, Nle, Arg, Pro, Tyr, Asn, Ala, NH2 (Myristoyl-G[Nle]RPYNA-NH2; SMILES CCCCCCCCCCCCCC(=O)NCC(=O)N[C@@H](CCCC)C(=O)N[C@@H](CCCNC(=N)N)C(=O)N1CCC[C@H]1C(=O)N[C@@H](Cc1ccc(O)cc1)C(=O)N[C@@H](CC(N)=O)C(=O)N[C@@H](C)C(N)=O) [Peptide 725-106, reference compound] |  | 7,000 | 4,600 | Functional evaluation at day 15 (individual mouse) ([1]; function score 0 (flexing the toes) to 3 (dragging of foot), one value per mouse): 3.0; Hind limb ischemia evaluation at day 15, Average ([1]; group average of ischemic score): 2.4; Hind limb ischemia evaluation at day 15 (individual mouse) ([1]; ischemic score 0 (absence of necrosis) to 4 (total hind-limb loss), one value per mouse, listed as 106): 2.0 (2×) and 3.0 and 2.5
14 | AB-023: Table 2: Hex-Gly (Hexanoyl), Nle, Arg, Pro, Tyr (Hexanoyl-G[Nle]RPY) | 1,700 | 430 | 320 | 
